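The compound was tested at five concentrations on cells cultured in 96-well plates, with a 48-hour exposure period. The concentration for full growth arrest is given as TGI.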
What was measured:
Test in all cases: NCI anticancer screen, dose series, 48 h
[1] = tested on: OVCAR-3 ovarian
[2] = tested on: COLO 205 colon
[3] = tested on: HT29 colon
[4] = tested on: ACHN renal
[5] = tested on: SK-OV-3 ovarian
[6] = tested on: A549 NSCLC
[7] = tested on: HL-60(TB) leukemia
[8] = tested on: EKVX NSCLC
[9] = tested on: 786-0 renal
[10] = tested on: DMS 114 small cell lung
[11] = tested on: UACC-257 melanoma
[12] = tested on: A498 renal
[13] = tested on: SN12C renal
[14] = tested on: K-562 leukemia
[15] = tested on: HCT-116 colon
[16] = tested on: NCI-H522 lung
[17] = tested on: MALME-3M melanoma
[18] = tested on: SF-539 CNS
[19] = tested on: OVCAR-8 ovarian
[20] = tested on: SF-295 CNS
[21] = tested on: U251 CNS
[22] = tested on: M19-MEL melanoma
[23] = tested on: SNB-75 CNS
[24] = tested on: XF 498 CNS
[25] = tested on: KM12 colon
[26] = tested on: NCI-H460 lung
[27] = tested on: UACC-62 melanoma
[28] = tested on: SK-MEL-28 melanoma
[29] = tested on: HOP-92 NSCLC
[30] = tested on: M14 melanoma
[31] = tested on: SR leukemia
[32] = tested on: NCI-H23 lung
[33] = tested on: DMS 273 small cell lung
[34] = tested on: IGROV1 ovarian
[35] = tested on: OVCAR-4 ovarian
[36] = tested on: DLD-1 colon
[37] = tested on: SK-MEL-2 melanoma
[38] = tested on: HOP-62 NSCLC
[39] = tested on: RXF 393 renal
[40] = tested on: SNB-78 CNS
[41] = tested on: SW-620 colon
[42] = tested on: CCRF-CEM leukemia
[43] = tested on: CAKI-1 renal
[44] = tested on: SF-268 CNS
[45] = tested on: LXFL 529 NSCLC
[46] = tested on: TK-10 renal
[47] = tested on: SNB-19 CNS
[48] = tested on: MOLT-4 leukemia
[49] = tested on: HCC-2998 colon
[50] = tested on: HCT-15 colon
[51] = tested on: LOX IMVI melanoma
[52] = tested on: KM20L2 colon
[53] = tested on: OVCAR-5 ovarian
[54] = tested on: RPMI-8226 leukemia
[55] = tested on: NCI-H226 lung
[56] = tested on: UO-31 renal
[57] = tested on: HOP-18 NSCLC
[58] = tested on: RXF-631 renal
[59] = tested on: SK-MEL-5 melanoma

Compound: N/C(=N\N=C\c1ccc(C(F)(F)F)cc1)NO
- TGI [1]: 62.9 µM
- TGI [2]: 38.7 µM
- TGI [3]: > 100 µM
- TGI [4]: 25.6 µM
- TGI [5]: > 100 µM
- TGI [6]: 59.2 µM
- TGI [7]: 46.3 µM
- TGI [8]: 33.7 µM
- TGI [9]: 37.7 µM
- TGI [10]: > 100 µM
- TGI [11]: > 100 µM
- TGI [12]: > 100 µM
- TGI [13]: > 100 µM
- TGI [14]: > 100 µM
- TGI [15]: > 100 µM
- TGI [16]: 50.4 µM
- TGI [17]: > 100 µM
- TGI [18]: 50.6 µM
- TGI [19]: 41.2 µM
- TGI [20]: > 100 µM
- TGI [21]: 87.3 µM
- TGI [22]: > 100 µM
- TGI [23]: > 100 µM
- TGI [24]: 51 µM
- TGI [25]: > 100 µM
- TGI [26]: > 100 µM
- TGI [27]: 21.7 µM
- TGI [28]: > 100 µM
- TGI [29]: 58.8 µM
- TGI [30]: 29.2 µM
- TGI [31]: > 100 µM
- TGI [32]: 52.9 µM
- TGI [33]: 59.9 µM
- TGI [34]: 33.2 µM
- TGI [35]: > 100 µM
- TGI [36]: > 100 µM
- TGI [37]: 92 µM
- TGI [38]: 55 µM
- TGI [39]: > 100 µM
- TGI [40]: > 100 µM
- TGI [41]: > 100 µM
- TGI [42]: 95.5 µM
- TGI [43]: 38.1 µM
- TGI [44]: 61 µM
- TGI [45]: > 100 µM
- TGI [46]: > 100 µM

Compound: Cc1cc2c(C)n(Cc3ccccc3Cl)nc2c(C(=O)O)c1C
- TGI [1]: > 100 µM
- TGI [3]: > 100 µM
- TGI [4]: > 100 µM
- TGI [5]: > 100 µM
- TGI [47]: > 100 µM
- TGI [6]: > 100 µM
- TGI [7]: > 100 µM
- TGI [48]: > 100 µM
- TGI [8]: > 100 µM
- TGI [49]: > 100 µM
- TGI [50]: > 100 µM
- TGI [9]: > 100 µM
- TGI [51]: > 100 µM
- TGI [52]: > 100 µM
- TGI [11]: > 100 µM
- TGI [13]: > 100 µM
- TGI [15]: > 100 µM
- TGI [53]: > 100 µM
- TGI [54]: > 100 µM
- TGI [17]: > 100 µM
- TGI [18]: > 100 µM
- TGI [19]: > 100 µM
- TGI [20]: > 100 µM
- TGI [21]: > 100 µM
- TGI [22]: > 100 µM
- TGI [23]: > 100 µM
- TGI [55]: > 100 µM
- TGI [24]: > 100 µM
- TGI [56]: > 100 µM
- TGI [26]: > 100 µM
- TGI [27]: > 100 µM
- TGI [28]: > 100 µM
- TGI [29]: > 100 µM
- TGI [31]: > 100 µM
- TGI [32]: > 100 µM
- TGI [33]: > 100 µM
- TGI [34]: > 100 µM
- TGI [36]: > 100 µM
- TGI [37]: > 100 µM
- TGI [38]: > 100 µM
- TGI [39]: > 100 µM
- TGI [40]: > 100 µM
- TGI [57]: > 100 µM
- TGI [41]: > 100 µM
- TGI [42]: > 100 µM
- TGI [44]: > 100 µM
- TGI [45]: > 100 µM
- TGI [46]: > 100 µM

Compound: O=C1/C=C(/c2ccc(O)cc2)[C@@H](O)Cc2ccc(O)cc2O1
- TGI [1]: > 100 µM
- TGI [2]: > 100 µM
- TGI [3]: > 100 µM
- TGI [4]: > 100 µM
- TGI [5]: > 100 µM
- TGI [47]: > 100 µM
- TGI [6]: > 100 µM
- TGI [8]: > 100 µM
- TGI [50]: > 100 µM
- TGI [9]: > 100 µM
- TGI [51]: > 100 µM
- TGI [52]: > 100 µM
- TGI [10]: > 100 µM
- TGI [11]: > 100 µM
- TGI [12]: 86.4 µM
- TGI [13]: > 100 µM
- TGI [15]: > 100 µM
- TGI [16]: > 100 µM
- TGI [53]: > 100 µM
- TGI [17]: > 100 µM
- TGI [18]: > 100 µM
- TGI [19]: > 100 µM
- TGI [20]: > 100 µM
- TGI [58]: > 100 µM
- TGI [21]: > 100 µM
- TGI [22]: > 100 µM
- TGI [55]: 89.6 µM
- TGI [59]: > 100 µM
- TGI [56]: > 100 µM
- TGI [25]: > 100 µM
- TGI [26]: > 100 µM
- TGI [27]: > 100 µM
- TGI [30]: > 100 µM
- TGI [31]: > 100 µM
- TGI [32]: > 100 µM
- TGI [34]: > 100 µM
- TGI [35]: > 100 µM
- TGI [36]: > 100 µM
- TGI [37]: > 100 µM
- TGI [38]: > 100 µM
- TGI [40]: > 100 µM
- TGI [41]: > 100 µM
- TGI [43]: > 100 µM
- TGI [44]: > 100 µM
- TGI [45]: > 100 µM
- TGI [46]: > 100 µM

Compound: NC(=O)c1ccccc1[N+](=O)[O-]
- TGI [1]: > 100 µM
- TGI [2]: > 100 µM
- TGI [3]: > 100 µM
- TGI [4]: > 100 µM
- TGI [47]: > 100 µM
- TGI [6]: > 100 µM
- TGI [48]: > 100 µM
- TGI [8]: > 100 µM
- TGI [49]: > 100 µM
- TGI [50]: > 100 µM
- TGI [9]: > 100 µM
- TGI [52]: > 100 µM
- TGI [10]: > 100 µM
- TGI [12]: > 100 µM
- TGI [13]: > 100 µM
- TGI [14]: > 100 µM
- TGI [15]: > 100 µM
- TGI [54]: > 100 µM
- TGI [17]: > 100 µM
- TGI [18]: > 100 µM
- TGI [19]: > 100 µM
- TGI [21]: > 100 µM
- TGI [22]: > 100 µM
- TGI [23]: > 100 µM
- TGI [24]: > 100 µM
- TGI [59]: > 100 µM
- TGI [27]: > 100 µM
- TGI [28]: > 100 µM
- TGI [29]: > 100 µM
- TGI [33]: > 100 µM
- TGI [34]: > 100 µM
- TGI [38]: > 100 µM
- TGI [40]: > 100 µM
- TGI [57]: > 100 µM
- TGI [41]: > 100 µM
- TGI [43]: > 100 µM
- TGI [44]: > 100 µM

Reference: PubChem BioAssay (NCI)
